Experimental findings from US9499550B2 (BRISTOL-MYERS SQUIBB COMPANY, priority 2012, dated 2016) are described below.

Where two headings read alike, the source gives them in different places. Some results are limits rather than exact numbers.

One may read the EC50 as the concentration giving half of the maximal effect.

Experiment [1] deals with HCV genotype 1a (H77 strain) replicon in HUH-7 cells. Briefly: HCV replicon luciferase reporter assay, genotype 1a. It counts as cell-based. The settings on record: Hepatitis C virus, Huh-7, 72 h, HCV genotype 1a replicon luciferase, 3 days incubation. In a few lines:
(§1)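 Replicon inhibition for both genotypes was measured as Renilla luciferase signal (EnduRen, 7.5 μM final, 2 h) after 3-day, 37° C exposure of replicon-bearing HUH-7 cells in 4% FCS DMEM, 0.5% DMSO. The 1b construct carries S1179I; the 1a H77 construct carries P1496L and S2204I. Twenty-point, 3-fold dilutions were fitted four-parametrically for EC50, and CC50 was taken from multiplexed Cell Titer-Blue.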
For orientation: A replicon is a self-replicating genome or part of one, used to study replication in cells.

The test system of experiment [2] is HCV genotype 1b (Con1) replicon in HUH-7 cells. Put plainly: HCV replicon luciferase reporter assay, genotype 1b. The experiment is classed as cell-based. The settings on record: Hepatitis C virus, Huh-7, 72 h, HCV genotype 1b replicon luciferase, 3 days incubation. In a few lines: as §1

Take `C[C@@H]1CC/C=C\[C@@H]2C[C@@]2(C(=O)NS(=O)(=O)C2CC2)NC(=O)[C@@H]2C[C@@H](Oc3nccc4c5c(ccc34)N(C)CCO5)CN2C(=O)[C@@H](NC(=O)O[C@@H]2C[C@@H]3C[C@@H]3C2)[C@H](C)C1` [Compound 5292, (1R,3r,5S)-bicyclo[3.1.0]hexan-3-yl((2R,6S,7R,9R,13aS,14aR,16aS,Z)-14a-((cyclopropylsulfonyl)carbamoyl)-7,9-dimethyl-2-((4-methyl-3,4-dihydro-2H-[1,4]oxazino[2,3-f]isoquinolin-7-yl)oxy)-5,16-dioxo-1,2,3,5,6,7,8,9,10,11,13a,14,14a,15,16,16a-hexadecahydrocyclopropa[e]pyrrolo[1,2-a][1,4]diazacyclopentadecin-6-yl)carbamate]: the EC50 was below 5.46 nM in experiment [1] (read-out: LE_1a (EC50, range)) and below 5.46 nM in experiment [2] (read-out: LE_1b (EC50, range)).

Turning to `C[C@H]1CC/C=C\[C@@H]2C[C@@]2(C(=O)NS(=O)(=O)C2(C)CC2)NC(=O)[C@@H]2C[C@@H](Oc3nccc4c5c(ccc34)N(C)CCO5)CN2C(=O)[C@@H](NC(=O)OC(C)(C)C)[C@H](C)C1` [Compound 5293, tert-butyl ((2R,6S,7R,9S,13aS,14aR,16aS,Z)-7,9-dimethyl-2-((4-methyl-3,4-dihydro-2H-[1,4]oxazino[2,3-f]isoquinolin-7-yl)oxy)-14a-(((1-methylcyclopropyl)sulfonyl)carbamoyl)-5,16-dioxo-1,2,3,5,6,7,8,9,10,11,13a,14,14a,15,16,16a-hexadecahydrocyclopropa[e]pyrrolo[1,2-a][1,4]diazacyclopentadecin-6-yl)carbamate], the EC50 in experiment [1] (read-out: LE_1a (EC50, range)) was 4.82 to 103 nM; in experiment [2] (read-out: LE_1b (EC50, range)), below 5.46 nM.

As to `C[C@@H]1CC/C=C\[C@@H]2C[C@@]2(C(=O)NS(=O)(=O)C2(C)CC2)NC(=O)[C@@H]2C[C@@H](Oc3nccc4c5c(ccc34)N(C)CCO5)CN2C(=O)[C@@H](NC(=O)OC(C)(C)C)[C@H](C)C1` [Compound 5294, tert-butyl ((2R,6S,7R,9R,13aS,14aR,16aS,Z)-7,9-dimethyl-2-((4-methyl-3,4-dihydro-2H-[1,4]oxazino[2,3-f]isoquinolin-7-yl)oxy)-14a-(((1-methylcyclopropyl)sulfonyl)carbamoyl)-5,16-dioxo-1,2,3,5,6,7,8,9,10,11,13a,14,14a,15,16,16a-hexadecahydrocyclopropa[e]pyrrolo[1,2-a][1,4]diazacyclopentadecin-6-yl)carbamate], the EC50 in experiment [1] (read-out: LE_1a (EC50, range)) was below 5.46 nM; in experiment [2] (read-out: LE_1b (EC50, range)), below 5.46 nM.

On to `C[C@H]1CC/C=C\[C@@H]2C[C@@]2(C(=O)NS(=O)(=O)C2(C)CC2)NC(=O)[C@@H]2C[C@@H](Oc3nccc4c5c(ccc34)N(C)CCO5)CN2C(=O)[C@@H](NC(=O)OC(C)(C)C(F)(F)F)[C@H](C)C1` [Compound 5295, 1,1,1-trifluoro-2-methylpropan-2-yl((2R,6S,7R,9S,13aS,14aR,16aS,Z)-7,9-dimethyl-2-((4-methyl-3,4-dihydro-2H-[1,4]oxazino[2,3-f]isoquinolin-7-yl)oxy)-14a-(((1-methylcyclopropyl)sulfonyl)carbamoyl)-5,16-dioxo-1,2,3,5,6,7,8,9,10,11,13a,14,14a,15,16,16a-hexadecahydrocyclopropa[e]pyrrolo[1,2-a][1,4]diazacyclopentadecin-6-yl)carbamate], for which the EC50 was 4.82 to 103 nM in experiment [1] (read-out: LE_1a (EC50, range)) and below 5.46 nM in experiment [2] (read-out: LE_1b (EC50, range)).

On to `C[C@@H]1CC/C=C\[C@@H]2C[C@@]2(C(=O)NS(=O)(=O)C2(C)CC2)NC(=O)[C@@H]2C[C@@H](Oc3nccc4c5c(ccc34)N(C)CCO5)CN2C(=O)[C@@H](NC(=O)OC(C)(C)C(F)(F)F)[C@H](C)C1` [Compound 5296, 1,1,1-trifluoro-2-methylpropan-2-yl((2R,6S,7R,9R,13aS,14aR,16aS,Z)-7,9-dimethyl-2-((4-methyl-3,4-dihydro-2H-[1,4]oxazino[2,3-f]isoquinolin-7-yl)oxy)-14a-(((1-methylcyclopropyl)sulfonyl)carbamoyl)-5,16-dioxo-1,2,3,5,6,7,8,9,10,11,13a,14,14a,15,16,16a-hexadecahydrocyclopropa[e]pyrrolo[1,2-a][1,4]diazacyclopentadecin-6-yl)carbamate], for which the EC50 is below 5.46 nM in experiment [1] (read-out: LE_1a (EC50, range)) and below 5.46 nM in experiment [2] (read-out: LE_1b (EC50, range)).

For the molecule `[2H]C([2H])([2H])C(OC(=O)N[C@@H]1C(=O)N2C[C@H](Oc3nccc4c5c(ccc34)N(C)CCO5)C[C@H]2C(=O)N[C@]2(C(=O)NS(=O)(=O)C3(C)CC3)C[C@H]2/C=C\CC[C@H](C)C[C@H]1C)(C([2H])([2H])[2H])C(F)(F)F` [Compound 5297, 1,1,1,3,3,3-hexadeutero-2-(trifluoromethyl)propan-2-yl((2R,6S,7R,9S,13aS,14aR,16aS,Z)-7,9-dimethyl-2-((4-methyl-3,4-dihydro-2H-[1,4]oxazino[2,3-f]isoquinolin-7-yl)oxy)-14a-(((1-methylcyclopropyl)sulfonyl)carbamoyl)-5,16-dioxo-1,2,3,5,6,7,8,9,10,11,13a,14,14a,15,16,16a-hexadecahydrocyclopropa[e]pyrrolo[1,2-a][1,4]diazacyclopentadecin-6-yl)carbamate], the EC50 in experiment [1] (read-out: LE_1a (EC50)) was 7.06 nM; in experiment [1] (read-out: LE_1a (EC50, range)), 4.82 to 103 nM; in experiment [2] (read-out: LE_1b (EC50)), 3.16 nM; in experiment [2] (read-out: LE_1b (EC50, range)), below 5.46 nM.

Consider `[2H]C([2H])([2H])C(OC(=O)N[C@@H]1C(=O)N2C[C@H](Oc3nccc4c5c(ccc34)N(C)CCO5)C[C@H]2C(=O)N[C@]2(C(=O)NS(=O)(=O)C3(C)CC3)C[C@H]2/C=C\CC[C@@H](C)C[C@H]1C)(C([2H])([2H])[2H])C(F)(F)F` [Compound 5298, 1,1,1,3,3,3-hexadeutero-2-(trifluoromethyl)propan-2-yl((2R,6S,7R,9R,13aS,14aR,16aS,Z)-7,9-dimethyl-2-((4-methyl-3,4-dihydro-2H-[1,4]oxazino[2,3-f]isoquinolin-7-yl)oxy)-14a-(((1-methylcyclopropyl)sulfonyl)carbamoyl)-5,16-dioxo-1,2,3,5,6,7,8,9,10,11,13a,14,14a,15,16,16a-hexadecahydrocyclopropa[e]pyrrolo[1,2-a][1,4]diazacyclopentadecin-6-yl)carbamate], for which the EC50 was below 5.46 nM in experiment [1] (read-out: LE_1a (EC50, range)) and below 5.46 nM in experiment [2] (read-out: LE_1b (EC50, range)).

On to `C[C@H]1CC/C=C\[C@@H]2C[C@@]2(C(=O)NS(=O)(=O)C2(C)CC2)NC(=O)[C@@H]2C[C@@H](Oc3nccc4c5c(ccc34)N(C)CCO5)CN2C(=O)[C@@H](NC(=O)O[C@@H]2C[C@@H]3C[C@@H]3C2)[C@H](C)C1` [Compound 5299, (1R,3r,5S)-bicyclo[3.1.0]hexan-3-yl((2R,6S,7R,9S,13aS,14aR,16aS,Z)-7,9-dimethyl-2-((4-methyl-3,4-dihydro-2H-[1,4]oxazino[2,3-f]isoquinolin-7-yl)oxy)-14a-(((1-methylcyclopropyl)sulfonyl)carbamoyl)-5,16-dioxo-1,2,3,5,6,7,8,9,10,11,13a,14,14a,15,16,16a-hexadecahydrocyclopropa[e]pyrrolo[1,2-a][1,4]diazacyclopentadecin-6-yl)carbamate], for which the concentration for a half-maximal effect (EC50) in experiment [1] (read-out: LE_1a (EC50, range)) was below 5.46 nM; in experiment [2] (read-out: LE_1b (EC50, range)), below 5.46 nM.

For the molecule `C[C@@H]1CC/C=C\[C@@H]2C[C@@]2(C(=O)NS(=O)(=O)C2(C)CC2)NC(=O)[C@@H]2C[C@@H](Oc3nccc4c5c(ccc34)N(C)CCO5)CN2C(=O)[C@@H](NC(=O)O[C@@H]2C[C@@H]3C[C@@H]3C2)[C@H](C)C1` [Compound 5300, (1R,3r,5S)-bicyclo[3.1.0]hexan-3-yl((2R,6S,7R,9R,13aS,14aR,16aS,Z)-7,9-dimethyl-2-((4-methyl-3,4-dihydro-2H-[1,4]oxazino[2,3-f]isoquinolin-7-yl)oxy)-14a-(((1-methylcyclopropyl)sulfonyl)carbamoyl)-5,16-dioxo-1,2,3,5,6,7,8,9,10,11,13a,14,14a,15,16,16a-hexadecahydrocyclopropa[e]pyrrolo[1,2-a][1,4]diazacyclopentadecin-6-yl)carbamate], the concentration giving a half-maximal response (EC50) was below 5.46 nM in experiment [1] (read-out: LE_1a (EC50, range)) and below 5.46 nM in experiment [2] (read-out: LE_1b (EC50, range)).

Regarding `C[C@H]1CC/C=C\[C@@H]2C[C@@]2(C(=O)NS(=O)(=O)C2(C)CC2)NC(=O)[C@@H]2C[C@@H](Oc3nccc4c5c(ccc34)N(C)CCO5)CN2C(=O)[C@@H](NC(=O)NC(C)(C)C)[C@H](C)C1` [Compound 5301, (2R,6S,7R,9S,13aS,14aR,16aS,Z)-6-(3-(tert-butyl)ureido)-7,9-dimethyl-2-((4-methyl-3,4-dihydro-2H-[1,4]oxazino[2,3-f]isoquinolin-7-yl)oxy)-N-((1-methylcyclopropyl)sulfonyl)-5,16-dioxo-1,2,3,5,6,7,8,9,10,11,13a,14,14a,15,16,16a-hexadecahydrocyclopropa[e]pyrrolo[1,2-a][1,4]diazacyclopentadecine-14a-carboxamide], the EC50 in experiment [1] (read-out: LE_1a (EC50, range)) was 4.82 to 103 nM; in experiment [2] (read-out: LE_1b (EC50, range)), below 5.46 nM.

Regarding `C[C@@H]1CC/C=C\[C@@H]2C[C@@]2(C(=O)NS(=O)(=O)C2(C)CC2)NC(=O)[C@@H]2C[C@@H](Oc3nccc4c5c(ccc34)N(C)CCO5)CN2C(=O)[C@@H](NC(=O)NC(C)(C)C)[C@H](C)C1` [Compound 5302, (2R,6S,7R,9R,13aS,14aR,16aS,Z)-6-(3-(tert-butyl)ureido)-7,9-dimethyl-2-((4-methyl-3,4-dihydro-2H-[1,4]oxazino[2,3-f]isoquinolin-7-yl)oxy)-N-((1-methylcyclopropyl)sulfonyl)-5,16-dioxo-1,2,3,5,6,7,8,9,10,11,13a,14,14a,15,16,16a-hexadecahydrocyclopropa[e]pyrrolo[1,2-a][1,4]diazacyclopentadecine-14a-carboxamide], the EC50 in experiment [1] (read-out: LE_1a (EC50, range)) is below 5.46 nM; in experiment [2] (read-out: LE_1b (EC50, range)), below 5.46 nM.
